From EPA's ToxValDB 9.5

Test system: Rattus norvegicus
Conditions: oral
[1] = short-term, duration: 28 days, gavage, M, Sprague-Dawley, Clinical Observation: Salivation Spontaneous locomotion decrease, Respiratory rate decrease
[2] = subchronic, gavage, M, Sprague-Dawley, Body Weight Changes: Body weight gain decrease + Food Consumption: Food consumption decrease + Blood Chemistry: ALP decrease, TG decrease, …
[3] = short-term, duration: 28 days, gavage, F, Sprague-Dawley, Clinical Observation: Salivation Soft feces Diarrhea Soiled perigenital fur + Body Weight Changes: decrease, Gain decrease + Urinalysis: pH …
[4] = short-term, duration: 28 days, gavage, M, Sprague-Dawley, Clinical Observation: Salivation Soft feces Diarrhea Soiled perigenital fur + Body Weight Changes: decrease, Gain decrease + Urinalysis: pH …
[5] = subchronic, gavage, M, Sprague-Dawley, Clinical Observation: Salivation Locomotor activity decrease, BradypneaIncomplete eyelid opening + Body Weight Changes: decrease + Blood …

How did the NOAEL (subchronic, duration: 90 days, gavage, M/F, Wistar, Urinalysis: Volume increase + Hematology: WBC decrease, RBC decrease, HGB decrease, HTC decrease + Histopathology: Liver: Inflammation, …) turn out when `CCOC(=O)CC#N` [Ethyl cyanoacetate] was run?
Its NOAEL is 100 mg/kg-day.

How did the NOEL (short-term, duration: 28 days, gavage, M/F, Sprague-Dawley, Food Consumption: decrease + Urinalysis: Volume increase, Prot decrease + Hematology: RBC increase, MCV decrease, MCH decrease + Absolute …) turn out when `ClCCc1ccccc1` [1-Chloro-2-phenylethane] was run?
Its NOEL is 60 mg/kg-day.

With `C=CC(C)(O)CCC=C(C)C` (configuration not stated) [Linalool] as the compound, how does the NOAEL (short-term, duration: 28 days, gavage, M/F, CD/BR, Deaths + Blood Chemistry: TP increase, Alb increase, Ca increase, Glu decrease + Absolute Organ Weight: Liver increase, Kidney increase + …) read?
Its NOAEL is 160 mg/kg-day.

`C[C@@H](O)[C@H]1C(=O)N2C(C(=O)O)=C([C@H]3CCCO3)S[C@H]12` [Fropenem] was tested. Which NOAEL (chronic, duration: 182 days, gavage, M/F, CD, Clinical Observation: Loose stool Soiled perineal region + Body Weight Changes: decrease + Food Consumption: decrease + Water Consumption: …) did it give?
Its NOAEL is 100 mg/kg-day.

With `COC1COC(OC2COC(OC3COC(OC4COC(OC)C(OS(=O)(=O)[O-])C4OS(=O)(=O)[O-])C(OC4OC(C(=O)[O-])C(OC)C(OS(=O)(=O)[O-])C4OS(=O)(=O)[O-])C3OS(=O)(=O)[O-])C(OS(=O)(=O)[O-])C2OS(=O)(=O)[O-])C(OS(=O)(=O)[O-])C1OS(=O)(=O)[O-].[Na+].[Na+].[Na+].[Na+].[Na+].[Na+].[Na+].[Na+].[Na+].[Na+]` (configuration not stated) [Elmiron] as the compound, how does the NOEL (repeat dose other, gavage, M/F, Fischer 344, Hematology: Hct decrease, Hgb decrease, RBC decrease, Plt increase, WBC increase + Absolute Organ Weight: Liver increase, Spleen increase, …) read?
The NOEL was under 63 mg/kg-day.

With `ClC(Cl)(Cl)c1ccccc1` [Benzotrichloride] as the compound, how does the NOAEL (short-term, duration: 28 days, diet, M/F, CD, Blood Chemistry: SDH(sorbitol dehydrogenase) increase, LDH increase + Histopathology: Liver: Anisokaryosis associated with pyknosis, …) read?
Its NOAEL is under 0.5 ppm.

Which NOAEL [1] does the source give for `O=P(OCCCl)(OCCCl)OCCCl` [Tris(2-chloroethyl) phosphate] here?
Its NOAEL is 400 mg/kg-day.

What about the NOEL [1] of the same compound?
Its NOEL is 80 mg/kg-day.

Which NOEL (short-term, duration: 28 days, gavage, M/F, Sprague-Dawley, Clinical Observation: Locomotor activity decrease + Functional Observational Battery: Width of straddle increase + Relative Organ Weight: …) does the source give for `CC1OC(C)OC(C)O1` (configuration not stated) [Paraldehyde] here?
The NOEL was 100 mg/kg-day.

What does the source list for `S=C(SSSSC(=S)N1CCCCC1)N1CCCCC1` [Bis(piperidinothiocarbonyl) tetrasulphide]?
NOEL (short-term, duration: 28 days, gavage, F, Sprague-Dawley, Histopathology: Kidney-Hyaline droplet, proximal tubular epithelium Kidney-Eosinophilic body, proximal tubular epithelium): 1000 mg/kg-day; NOEL (short-term, duration: 28 days, gavage, M, Sprague-Dawley, Histopathology: Kidney-Hyaline droplet, proximal tubular epithelium Kidney-Eosinophilic body, proximal tubular epithelium): 100 mg/kg-day; NOEL (subchronic, gavage, M, Sprague-Dawley, Clinical Observation: Light brown stool + Body Weight Changes: decrease, R): 1000 mg/kg-day

For `C(CCCOCC1CO1)CCOCC1CO1` (configuration not stated) [1,6-Hexanediol diglycidyl ether], which NOAEL [2] is on record?
The NOAEL was 30 mg/kg-day.

And the NOEL [2]?
The NOEL was 30 mg/kg-day.

With `O=C(Nc1ccccc1SSc1ccccc1NC(=O)c1ccccc1)c1ccccc1` [2,2'-Dibenzoylaminodiphenyl disulfide] as the compound, how does the NOEL (subchronic, gavage, M, Sprague-Dawley, Clinical Observation: Salivation + Blood Chemistry: ALT increase, Glu increase + Absolute Organ Weight: Liver increase + Relative Organ …) read?
Its NOEL is 300 mg/kg-day.

For `CCCCn1c(O)c(C#N)c(C)c(N=Nc2ccc([N+](=O)[O-])cc2Cl)c1=O`, which NOEL (short-term, duration: 28 days, gavage, M/F, Blood Chemistry: GOT increase, T-bil increase + Organ Weight: Liver increase) is on record?
The NOEL was 250 mg/kg-day.

How did the LOEL [3] turn out when `CC(C)c1cccc2ccccc12` [Isopropylnaphthalene] was run?
The LOEL was 250 mg/kg-day.

And the NOEL [3]?
Its NOEL is 50 mg/kg-day.

What about the LOEL [4] of the same compound?
Its LOEL is 250 mg/kg-day.

And the NOEL [4]?
The NOEL was 50 mg/kg-day.

With `O=C(O)c1cccc([N+](=O)[O-])c1` [3-Nitrobenzoic acid] as the compound, how does the NOEL (subchronic, gavage, M, Sprague-Dawley, Body Weight Changes: decrease + Hematology: RBC decrease + Blood Chemistry: TP decrease, A/G increase, Pi increase, K increase, Cl decrease…) read?
Its NOEL is 20 mg/kg-day.

How did the NOAEL [5] turn out when `COCc1ccc(COC)cc1` [1,4-Bis(methoxymethyl)benzene] was run?
Its NOAEL is 50 mg/kg-day.

And the NOEL [5]?
Its NOEL is 50 mg/kg-day.

With `CC(C)=CCO` [3-Methyl-2-buten-1-ol] as the compound, how does the NOAEL (subchronic, duration: 90 days, drinking water, M/F, Wistar, Body Weight Changes: Mean body weight decrease, Weight gain decrease + Food Consumption: decrease + Water Consumption: decrease + Urinalysis…) read?
The NOAEL was 152 mg/kg-day.

With `C=CN1CCCC1=O` [Vinylpyrrolidone] as the compound, how does the NOAEL (subchronic, duration: 90 days, drinking water, M/F, Wistar, Water Consumption: decrease + Blood Chemistry: TP decrease, Glob decrease, Alb decrease + Absolute Organ Weight: Kidney increase) read?
Its NOAEL is 4.56 mg/kg-day.

What about the NOAEL (subchronic, duration: 90 days, gavage, M/F, Wistar, Food Consumption: decrease + Water Consumption: increase + Hematology: PLT increase + Absolute Organ Weight: Liver increase + Histopathology…) of the same compound?
Its NOAEL is 60 mg/kg-day.

With `CC(=O)CC/C=C(\C)CC/C=C(\C)CC/C=C(\C)CCC=C(C)C` [Teprenone] as the compound, how does the NOEL (subchronic, gavage, M/F, Sprague-Dawley, Clinical Observation: Oily fur Unkempt fur Loss of fur Diarrhea + Body Weight Changes: decrease + Urinalysis: Cl increase, Ketone + …) read?
Its NOEL is 62.5 mg/kg-day.
